By IC50 is commonly meant the point on the concentration scale where inhibition reaches its midpoint.

This is an account of results in article PMC2248166, “Quantitative peptide binding motifs for 19 human and mouse MHC class I molecules derived using positional scanning combinatorial peptide libraries” (Immunome Research, 2008).

Structures are written as SMILES. Where a SMILES comes first, the peptide text is derived from it.

In this experiment the target is HLA B*0801 (Homo sapiens, UniProt P01889, A93T/A95T/D138N/E176V/E187T/K202T/Q94N/R180D/S35A/V36M/Y33D/Y91F). In words: biochemical. The class given is binding.

In turn, `CSCC[C@H](NC(=O)[C@H](CCCNC(=N)N)NC(=O)[C@H](CCCCN)NC(=O)[C@H](CO)NC(=O)[C@H](CCCCN)NC(=O)[C@H](C)NC(=O)[C@@H](N)Cc1ccc(O)cc1)C(=O)N[C@@H](C)C(=O)N[C@@H](CCC(=O)O)C(=O)O` [3102.0786] (H-YAKSKRMAE-OH) displayed an IC50 of 31 nM. With `CC(C)C[C@H](NC(=O)[C@H](CCCNC(=N)N)NC(=O)[C@H](Cc1c[nH]cn1)NC(=O)[C@H](CC(C)C)NC(=O)[C@H](Cc1ccc(O)cc1)NC(=O)[C@H](CCCNC(=N)N)NC(=O)[C@H](CCCNC(=N)N)NC(=O)[C@@H]1CCCN1C(=O)[C@@H](N)CS)C(=O)O` [3102.0755] (H-CPRRYLHRL-OH), the IC50 stood at 2.7 nM. `CC[C@H](C)[C@H](NC(=O)CNC(=O)[C@H](Cc1c[nH]cn1)NC(=O)[C@H](CCCNC(=N)N)NC(=O)[C@H](CCC(N)=O)NC(=O)[C@H](CC(C)C)NC(=O)[C@H](CCCCN)NC(=O)[C@@H](N)CO)C(=O)N[C@@H](CC(C)C)C(=O)O` [3102.0549] (H-SKLQRHGIL-OH): the IC50 was determined as 16 nM. `CC[C@H](C)[C@H](NC(=O)[C@H](CCCCN)NC(=O)[C@H](Cc1c[nH]cn1)NC(=O)[C@H](CCCCN)NC(=O)[C@@H](NC(=O)[C@H](CCCCN)NC(=O)[C@H](CO)NC(=O)[C@@H](N)CCSC)[C@@H](C)CC)C(=O)N[C@@H](Cc1ccccc1)C(=O)O` [3102.0769] (H-MSKIKHKIF-OH) yielded an IC50 of 0.84 nM. On to `CC(C)C[C@H](NC(=O)[C@H](CO)NC(=O)[C@@H]1CCCN1C(=O)[C@H](CCCNC(=N)N)NC(=O)[C@H](CCCCN)NC(=O)[C@H](CO)NC(=O)[C@H](CC(C)C)NC(=O)[C@H](CC(C)C)NC(=O)[C@@H](N)C(C)C)C(=O)O` [3102.0634] (H-VLLSKRPSL-OH), for which the IC50 came to 78 nM. The figure for `CC[C@H](C)[C@H](NC(=O)[C@H](CCCNC(=N)N)NC(=O)[C@H](CCCNC(=N)N)NC(=O)[C@H](CCSC)NC(=O)[C@H](CC(C)C)NC(=O)[C@H](C)NC(=O)[C@@H](N)CC(N)=O)C(=O)N[C@@H](C)C(=O)N[C@H](C(=O)O)C(C)C` [3102.0577] (H-NALMRRIAV-OH) is 17 nM; for `CC[C@H](C)[C@H](NC(=O)[C@@H](N)CO)C(=O)N[C@@H](CCCCN)C(=O)N[C@@H](CO)C(=O)N[C@@H](CCCCN)C(=O)N[C@@H](CO)C(=O)N[C@@H](CCCNC(=N)N)C(=O)N[C@@H](CCCNC(=N)N)C(=O)N[C@@H](CC(C)C)C(=O)O` [3102.0534] (H-SIKSKSRRL-OH) it is 30 nM; for `CC[C@H](C)[C@H](NC(=O)[C@H](CO)NC(=O)[C@H](CC(C)C)NC(=O)[C@H](CCSC)NC(=O)[C@H](CO)NC(=O)[C@H](CCCNC(=N)N)NC(=O)[C@@H]1CCCN1C(=O)[C@@H](N)Cc1ccccc1)C(=O)N[C@@H](Cc1ccccc1)C(=O)O` [3102.0543] (H-FPRSMLSIF-OH) it is 9.9 nM. Consider `CC[C@H](C)[C@H](NC(=O)[C@H](C)NC(=O)[C@H](CC(C)C)NC(=O)[C@@H](NC(=O)[C@H](CCCCN)NC(=O)[C@H](CCCNC(=N)N)NC(=O)[C@H](CCCCN)NC(=O)[C@H](CC(N)=O)NC(=O)[C@@H](N)CO)C(C)C)C(=O)O` [3102.0561] (H-SNKRKVLAI-OH), for which it took 1.9 nM to reach half-maximal inhibition (IC50). The figure for `CSCC[C@H](NC(=O)[C@@H]1CCCN1C(=O)[C@@H](N)CC(C)C)C(=O)N[C@@H](CC(C)C)C(=O)N[C@@H](Cc1ccc(O)cc1)C(=O)N[C@@H](Cc1ccccc1)C(=O)N[C@@H](CC(C)C)C(=O)N[C@@H](Cc1ccc(O)cc1)C(=O)N[C@H](C(=O)O)C(C)C` [3102.0703] (H-LPMLYFLYV-OH) is 2.5 nM; for `CC[C@H](C)[C@H](NC(=O)[C@H](CCCNC(=N)N)NC(=O)[C@H](CO)NC(=O)[C@H](CCCNC(=N)N)NC(=O)[C@H](CC(C)C)NC(=O)[C@H](C)N)C(=O)N[C@@H](CCCNC(=N)N)C(=O)N[C@@H](CCC(=O)O)C(=O)N[C@@H](CC(C)C)C(=O)O` [3102.0743] (H-ALRSRIREL-OH) it is 0.46 nM. As for `CSCC[C@H](NC(=O)CNC(=O)[C@@H](N)CO)C(=O)N[C@H](C(=O)N[C@@H](Cc1ccccc1)C(=O)N[C@H](C(=O)N[C@@H](CO)C(=O)N1CCC[C@H]1C(=O)N[C@H](C(=O)O)C(C)C)[C@@H](C)O)C(C)C` [3102.0762] (H-SGMVFTSPV-OH), the figure is 77 nM. As for `CC[C@H](C)[C@H](NC(=O)[C@@H](NC(=O)[C@H](CC(C)C)NC(=O)[C@H](Cc1ccccc1)NC(=O)[C@H](Cc1c[nH]cn1)NC(=O)[C@@H](NC(=O)[C@@H](NC(=O)[C@H](CCCCN)NC(=O)[C@@H](N)CCC(=O)O)[C@@H](C)CC)[C@@H](C)CC)[C@@H](C)O)C(=O)O` [3102.0618] (H-EKIIHFLTI-OH), the figure is 5 nM; as for `CC[C@H](C)[C@H](NC(=O)[C@H](CC(N)=O)NC(=O)[C@H](CCCCN)NC(=O)[C@H](Cc1ccccc1)NC(=O)[C@H](CCCNC(=N)N)NC(=O)[C@H](CC(N)=O)NC(=O)[C@H](CCSC)NC(=O)[C@H](CC(C)C)NC(=O)[C@@H](N)Cc1ccc(O)cc1)C(=O)O` [3102.0642] (H-YLMNRFKNI-OH), 1.3 nM. `CC[C@H](C)[C@H](NC(=O)[C@H](CC(C)C)NC(=O)[C@@H](N)CCSC)C(=O)N[C@@H](CC(C)C)C(=O)N[C@@H](CC(N)=O)C(=O)N[C@@H](Cc1ccccc1)C(=O)N[C@@H](CS)C(=O)N[C@@H](CCCCN)C(=O)N[C@@H](CC(C)C)C(=O)O` [3102.0702] (H-MLILNFCKL-OH) displayed an IC50 of 3.9 nM. The figure for `CSCC[C@H](NC(=O)[C@H](C)NC(=O)[C@@H](NC(=O)[C@@H](N)C(C)C)C(C)C)C(=O)N[C@@H](CCCNC(=N)N)C(=O)N[C@@H](Cc1c[nH]cn1)C(=O)N[C@@H](CC(C)C)C(=O)N[C@@H](CO)C(=O)N[C@@H](CC(C)C)C(=O)O` [3102.0557] (H-VVAMRHLSL-OH) is 0.98 nM. The figure for `CC[C@H](C)[C@H](NC(=O)[C@@H]1CCCN1C(=O)[C@H](CCCNC(=N)N)NC(=O)[C@H](CCCNC(=N)N)NC(=O)[C@H](CCC(=O)O)NC(=O)[C@H](CCCCN)NC(=O)[C@H](CCSC)NC(=O)[C@@H](N)[C@@H](C)O)C(=O)N[C@@H](CC(C)C)C(=O)O` [3102.0600] (H-TMKERRPIL-OH) is 1.8 nM.

For `CC[C@H](C)[C@H](NC(=O)[C@H](CO)NC(=O)[C@H](Cc1ccccc1)NC(=O)[C@H](CC(C)C)NC(=O)[C@@H](NC(=O)[C@H](CCCNC(=N)N)NC(=O)[C@H](CC(C)C)NC(=O)[C@@H](N)Cc1c[nH]cn1)C(C)C)C(=O)N[C@@H](Cc1ccccc1)C(=O)O` [3102.0612] (H-HLRVLFSIF-OH), the IC50 was found to be 4.7 nM.

As for `CSCC[C@H](NC(=O)[C@H](CC(C)C)NC(=O)[C@H](CCCNC(=N)N)NC(=O)[C@H](CCCCN)NC(=O)[C@H](CCSC)NC(=O)[C@H](CCSC)NC(=O)[C@@H](N)CCSC)C(=O)N[C@@H](Cc1ccccc1)C(=O)N[C@@H](CCC(=O)O)C(=O)O` [3102.0672] (H-MMMKRLMFE-OH), the midpoint of inhibition, the IC50, lay at 75 nM. With `CC[C@H](C)[C@H](NC(=O)[C@H](CCC(N)=O)NC(=O)[C@H](CCC(=O)O)NC(=O)[C@H](Cc1ccccc1)NC(=O)[C@H](Cc1ccc(O)cc1)NC(=O)[C@H](CC(=O)O)NC(=O)[C@H](CCCNC(=N)N)NC(=O)[C@H](CC(C)C)NC(=O)[C@@H](N)CCC(=O)O)C(=O)O` [3102.0939] (H-ELRDYFEQI-OH), 13 nM corresponded to half-maximal inhibition (IC50). The compound `N=C(N)NCCC[C@H](NC(=O)[C@H](CCCNC(=N)N)NC(=O)[C@@H](N)CC(=O)O)C(=O)N[C@@H](CO)C(=O)N[C@@H](Cc1ccccc1)C(=O)N[C@@H](Cc1ccccc1)C(=O)N[C@@H](CCCCN)C(=O)N[C@@H](CS)C(=O)N[C@@H](Cc1ccccc1)C(=O)O` [3102.0758] (H-DRRSFFKCF-OH) yielded an IC50 of 76 nM. In turn, `C[C@H](NC(=O)[C@H](CCCCN)NC(=O)[C@H](Cc1ccccc1)NC(=O)[C@H](CCCCN)NC(=O)[C@H](CC(=O)O)NC(=O)[C@H](CCCNC(=N)N)NC(=O)[C@H](CC(N)=O)NC(=O)[C@@H](N)Cc1ccc(O)cc1)C(=O)N[C@@H](Cc1ccccc1)C(=O)O` [3102.0564] (H-YNRDKFKAF-OH) had an IC50 of 20 nM. In turn, `CC[C@H](C)[C@H](NC(=O)[C@H](Cc1ccccc1)NC(=O)[C@H](CC(C)C)NC(=O)[C@@H](NC(=O)[C@H](CC(C)C)NC(=O)[C@H](Cc1ccccc1)NC(=O)[C@@H]1CCCN1C(=O)[C@@H](NC(=O)[C@@H](N)CC(C)C)[C@@H](C)CC)[C@@H](C)CC)C(=O)O` [3102.0791] (H-LIPFLILFI-OH) yielded an IC50 of 50 nM. Compound `CC[C@H](C)[C@H](N)C(=O)N[C@@H](CO)C(=O)N[C@@H](CCC(=O)O)C(=O)N[C@@H](CO)C(=O)N[C@@H](CCCNC(=N)N)C(=O)N[C@@H](Cc1ccccc1)C(=O)N[C@@H](CCC(N)=O)C(=O)N[C@@H](CO)C(=O)N[C@@H](CC(C)C)C(=O)O` [3102.0767] (H-ISESRFQSL-OH) displayed an IC50 of 40 nM. Compound `CC[C@H](C)[C@H](NC(=O)[C@@H](N)Cc1ccccc1)C(=O)N[C@@H](C)C(=O)N[C@@H](CCCCN)C(=O)N[C@@H](Cc1c[nH]cn1)C(=O)N[C@@H](Cc1ccccc1)C(=O)N[C@@H](CC(C)C)C(=O)N[C@@H](CCC(=O)O)C(=O)N[C@@H](CC(C)C)C(=O)O` [3102.0900] (H-FIAKHFLEL-OH) displayed an IC50 of 1.3 nM.

Compound `CSCC[C@H](NC(=O)[C@H](Cc1ccccc1)NC(=O)CN)C(=O)N[C@@H](CCCNC(=N)N)C(=O)N[C@@H](Cc1ccccc1)C(=O)N[C@@H](Cc1ccccc1)C(=O)N[C@@H](CCC(N)=O)C(=O)N[C@@H](CC(C)C)C(=O)N[C@@H](CC(C)C)C(=O)O` [3102.0728] (H-GFMRFFQLL-OH) gave an IC50 of 2.4 nM.

Regarding `CC[C@H](C)[C@H](NC(=O)[C@H](Cc1ccc(O)cc1)NC(=O)[C@H](C)NC(=O)[C@H](Cc1ccccc1)NC(=O)[C@H](Cc1ccc(O)cc1)NC(=O)[C@H](Cc1ccc(O)cc1)NC(=O)[C@H](CCCNC(=N)N)NC(=O)[C@H](CCC(=O)O)NC(=O)CN)C(=O)O` [3102.0936] (H-GERYYFAYI-OH), the IC50 came to 6.9 nM. `CC[C@H](C)[C@H](NC(=O)[C@H](CCCCN)NC(=O)[C@@H](NC(=O)[C@H](CCCNC(=N)N)NC(=O)[C@H](CC(C)C)NC(=O)[C@H](CC(N)=O)NC(=O)[C@H](CC(C)C)NC(=O)[C@@H](N)CO)[C@@H](C)CC)C(=O)N[C@@H](CC(C)C)C(=O)O` [3102.0536] (H-SLNLRIKIL-OH) yielded an IC50 of 92 nM.
